The nature of this data set: Stability study of the shampoo solution at room temperature (active ingredient remaining). It is filed as physicochemical. As to the method: Solution was stirred and stability studies were performed at room temperature

As to “N-chloro-4-carboxybenzenesulfonamide disodium salt”, the “N-chloro-4-carboxybenzenesulfonamide disodium salt active ingredient remained” value reads like this: (in Example 1 shampoo (1% active, pH just below 9), after 49 days) 84.8%; (in Example 2 shampoo (1% active, pH 9), after 62 days) 100%; (in Example 3 shampoo (1% active, pH 9), after 62 days) 88.1%.

The values are drawn from patent US20060073995A1, “Animal shampoo” (priority 2004, published 2006).
